Test results as given in US20240383875A1, “Benzimidazole Pyridine Derivatives” (Hoffmann-La Roche Inc., priority 2022, published 2024).

Experiments:
Assay type in all cases: biochemical
SIK1 = SIK1 (Homo sapiens, UniProt P57059); test: Enzymatic activity assay SIK1, RapidFire mass spectrometry (phosphorylation of CHK-peptide); conditions: RapidFire MS, inhibition of SIK1; read-out: SIK1 RF IC50
Method in brief: (§1)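 Compounds (12-point, 3-fold, generally 30 μM to 170 pM) were pre-incubated 30 min at ambient temperature with SIK1 (5 nM), SIK2 (0.5 nM) or SIK3 (1.5 nM) in HEPES pH 7.0/magnesium acetate buffer. CHK-peptide (10 μM solution) and ATP (100 μM solution) were then added for 45 min before formic acid quench.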

SIK2 = SIK2 (Homo sapiens, UniProt Q9H0K1); test: Enzymatic activity assay SIK2, RapidFire mass spectrometry (phosphorylation of CHK-peptide); conditions: RapidFire MS, inhibition of SIK2; read-out: SIK2 RF IC50
Method in brief: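 SIK2 (0.5 nM) in pH 7.0 HEPES buffer with 10 mM Mg acetate phosphorylates CHK-peptide (10 μM solution) with 100 μM ATP solution, 45 min ambient, then formic acid quench.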

SIK3 = SIK3 (Homo sapiens, UniProt Q9Y2K2); test: Enzymatic activity assay SIK3, RapidFire mass spectrometry (phosphorylation of CHK-peptide); conditions: RapidFire MS, inhibition of SIK3; read-out: SIK3 RF IC50
Method in brief: as §1

SIK3, sequence (Q9Y2K2 whole entry): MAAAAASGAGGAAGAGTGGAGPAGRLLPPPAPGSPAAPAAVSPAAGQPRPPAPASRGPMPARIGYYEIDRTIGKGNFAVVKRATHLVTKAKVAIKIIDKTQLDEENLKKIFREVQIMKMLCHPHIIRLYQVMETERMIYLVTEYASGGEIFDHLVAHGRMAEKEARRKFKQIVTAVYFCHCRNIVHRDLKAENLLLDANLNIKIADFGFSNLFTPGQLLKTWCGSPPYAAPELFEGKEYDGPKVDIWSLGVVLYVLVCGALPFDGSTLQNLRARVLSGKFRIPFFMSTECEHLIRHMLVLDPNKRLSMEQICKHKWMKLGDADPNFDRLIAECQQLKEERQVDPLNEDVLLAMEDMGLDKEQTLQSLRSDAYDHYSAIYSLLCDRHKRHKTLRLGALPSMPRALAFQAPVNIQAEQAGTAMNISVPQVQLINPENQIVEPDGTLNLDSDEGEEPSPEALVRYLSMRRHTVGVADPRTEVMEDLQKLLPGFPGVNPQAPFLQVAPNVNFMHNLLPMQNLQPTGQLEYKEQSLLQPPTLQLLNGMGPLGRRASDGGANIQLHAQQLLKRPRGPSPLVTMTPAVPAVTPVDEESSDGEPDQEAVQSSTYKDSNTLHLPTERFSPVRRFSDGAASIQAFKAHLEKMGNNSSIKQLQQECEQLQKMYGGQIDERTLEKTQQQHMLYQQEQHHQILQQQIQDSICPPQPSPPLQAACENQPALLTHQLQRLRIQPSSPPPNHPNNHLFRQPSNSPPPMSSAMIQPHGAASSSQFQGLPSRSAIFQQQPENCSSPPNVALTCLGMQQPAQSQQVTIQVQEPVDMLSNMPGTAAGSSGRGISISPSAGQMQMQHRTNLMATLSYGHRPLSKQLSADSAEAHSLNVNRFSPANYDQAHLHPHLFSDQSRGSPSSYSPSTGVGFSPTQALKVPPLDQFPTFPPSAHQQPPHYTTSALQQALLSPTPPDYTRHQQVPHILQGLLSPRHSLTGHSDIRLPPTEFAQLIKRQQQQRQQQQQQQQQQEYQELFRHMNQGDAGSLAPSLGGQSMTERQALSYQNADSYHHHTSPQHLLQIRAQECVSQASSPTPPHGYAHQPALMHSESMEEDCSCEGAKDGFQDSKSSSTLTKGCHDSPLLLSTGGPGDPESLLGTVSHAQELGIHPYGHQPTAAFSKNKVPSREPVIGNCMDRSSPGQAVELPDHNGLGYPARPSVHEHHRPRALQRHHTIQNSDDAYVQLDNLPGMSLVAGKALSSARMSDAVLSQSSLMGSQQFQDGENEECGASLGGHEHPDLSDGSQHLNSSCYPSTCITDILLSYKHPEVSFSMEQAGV
SIK2, sequence (Q9H0K1 whole entry): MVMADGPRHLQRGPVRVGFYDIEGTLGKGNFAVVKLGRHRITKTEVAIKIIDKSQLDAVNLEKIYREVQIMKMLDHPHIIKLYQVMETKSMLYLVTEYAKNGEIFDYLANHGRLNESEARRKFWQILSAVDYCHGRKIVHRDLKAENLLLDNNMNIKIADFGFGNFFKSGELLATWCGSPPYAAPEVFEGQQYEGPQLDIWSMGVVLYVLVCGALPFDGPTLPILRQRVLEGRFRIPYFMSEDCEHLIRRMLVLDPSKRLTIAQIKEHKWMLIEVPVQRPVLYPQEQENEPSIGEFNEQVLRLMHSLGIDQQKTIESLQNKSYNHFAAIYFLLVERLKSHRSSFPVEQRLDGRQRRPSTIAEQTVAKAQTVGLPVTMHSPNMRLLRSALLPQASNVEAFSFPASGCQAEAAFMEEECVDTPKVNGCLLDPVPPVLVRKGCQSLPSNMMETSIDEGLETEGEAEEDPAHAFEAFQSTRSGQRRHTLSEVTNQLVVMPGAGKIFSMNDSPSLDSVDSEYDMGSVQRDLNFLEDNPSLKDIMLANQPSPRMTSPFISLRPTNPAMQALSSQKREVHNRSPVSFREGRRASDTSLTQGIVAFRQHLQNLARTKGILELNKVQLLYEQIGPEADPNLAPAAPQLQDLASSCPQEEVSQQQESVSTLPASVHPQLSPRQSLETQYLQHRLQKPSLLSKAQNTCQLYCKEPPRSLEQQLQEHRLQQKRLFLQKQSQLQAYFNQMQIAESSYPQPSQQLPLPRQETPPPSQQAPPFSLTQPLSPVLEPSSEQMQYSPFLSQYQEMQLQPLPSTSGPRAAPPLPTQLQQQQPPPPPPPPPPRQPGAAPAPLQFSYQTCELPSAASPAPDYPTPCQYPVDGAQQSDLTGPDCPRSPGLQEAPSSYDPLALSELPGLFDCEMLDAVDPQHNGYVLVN
SIK1, sequence (P57059 whole entry): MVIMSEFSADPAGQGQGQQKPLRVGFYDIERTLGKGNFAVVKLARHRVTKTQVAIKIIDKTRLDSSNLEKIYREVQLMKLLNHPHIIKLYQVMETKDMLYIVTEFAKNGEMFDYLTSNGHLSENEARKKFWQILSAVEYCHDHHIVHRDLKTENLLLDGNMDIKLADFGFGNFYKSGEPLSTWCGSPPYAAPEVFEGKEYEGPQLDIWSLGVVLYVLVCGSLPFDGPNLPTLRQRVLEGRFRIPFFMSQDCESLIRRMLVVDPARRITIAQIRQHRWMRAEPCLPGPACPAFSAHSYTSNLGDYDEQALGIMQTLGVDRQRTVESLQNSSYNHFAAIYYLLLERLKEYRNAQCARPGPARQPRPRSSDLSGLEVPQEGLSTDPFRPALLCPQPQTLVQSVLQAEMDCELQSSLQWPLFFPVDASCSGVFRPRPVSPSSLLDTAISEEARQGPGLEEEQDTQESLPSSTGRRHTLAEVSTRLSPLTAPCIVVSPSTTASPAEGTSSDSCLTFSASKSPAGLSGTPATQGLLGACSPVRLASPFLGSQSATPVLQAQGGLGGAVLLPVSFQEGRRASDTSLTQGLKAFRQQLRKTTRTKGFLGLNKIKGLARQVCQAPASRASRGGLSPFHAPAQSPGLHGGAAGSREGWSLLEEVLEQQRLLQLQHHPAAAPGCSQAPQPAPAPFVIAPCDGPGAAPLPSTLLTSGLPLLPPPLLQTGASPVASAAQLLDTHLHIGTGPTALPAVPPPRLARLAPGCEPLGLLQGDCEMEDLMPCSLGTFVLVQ

IC50 (SIK1)	IC50 (SIK2)	IC50 (SIK3)	SMILES
613 nM	135 nM	85.2 nM	Cc1ccc(Nc2ccc3ncn(-c4ccc(C(C)O)c(-n5cc(C)c(C#N)n5)n4)c3c2)nn1 (stereo not drawn) [Example 169, 1-[3-(1-Hydroxyethyl)-6-[6-[(6-methylpyridazin-3-yl)amino]benzimidazol-1-yl]-2-pyridyl]-4-methyl-pyrazole-3-carbonitrile; formic acid]
216 nM	2.1 nM	1 nM	Cc1ccc(Nc2ccc3c(c2)ncn3-c2ccc(C(C)O)c(-n3cc(C)c(C#N)n3)n2)nn1 (stereo not drawn) [Example 170, 1-[3-(1-Hydroxyethyl)-6-[5-[(6-methylpyridazin-3-yl)amino]benzimidazol-1-yl]-2-pyridyl]-4-methyl-pyrazole-3-carbonitrile; formic acid]
9 nM	0.3 nM	0.7 nM	Cc1ccc(Nc2ccc3c(c2)ncn3-c2ccc(C(C)O)c(-n3nc(C(F)(F)F)c4c3CCN(C)C4)n2)nn1 (stereo not drawn) [Example 171, 1-[6-[5-[(6-Methylpyridazin-3-yl)amino]benzimidazol-1-yl]-2-[5-methyl-3-(trifluoromethyl)-6,7-dihydro-4H-pyrazolo[4,3-c]pyridin-1-yl]-3-pyridyl]ethanol; formic acid]
2620 nM	2090 nM	1850 nM	Cc1ccc(Nc2ccc3ncn(-c4ccc(C(C)O)c(N(C)CC5(C#N)CC5)n4)c3c2)nn1 (stereo not drawn) [Example 172, 1-[[[3-(1-hydroxyethyl)-6-[6-[(6-methylpyridazin-3-yl)amino]benzimidazol-1-yl]-2-pyridyl]-methyl-amino]methyl]cyclopropanecarbonitrile]
3490 nM	198 nM	53.9 nM	Cc1ccc(Nc2ccc3c(c2)ncn3-c2ccc(C(C)O)c(N(C)CC3(C#N)CC3)n2)nn1 (stereo not drawn) [Example 173, 1-[[[3-(1-Hydroxyethyl)-6-[5-[(6-methylpyridazin-3-yl)amino]benzimidazol-1-yl]-2-pyridyl]-methyl-amino]methyl]cyclopropanecarbonitrile]
12100 nM	151 nM	29 nM	Cc1ccc(Nc2ccc3c(c2)ncn3-c2ccc(C(C)O)c(-c3cc(F)cnc3Cl)n2)nn1 (stereo not drawn) [Example 174, 1-[2-(2-Chloro-5-fluoro-3-pyridyl)-6-[5-[(6-methylpyridazin-3-yl)amino]benzimidazol-1-yl]-3-pyridyl]ethanol; formic acid]
253 nM	2.8 nM	3.1 nM	Cc1ccc(Nc2ccc3c(c2)ncn3-c2ccc(C(C)O)c(-n3nc(C(F)(F)F)c4c3CCN(C3COC3)C4)n2)nn1 (stereo not drawn) [Example 177, 1-[6-[5-[(6-Methylpyridazin-3-yl)amino]benzimidazol-1-yl]-2-[5-(oxetan-3-yl)-3-(trifluoromethyl)-6,7-dihydro-4H-pyrazolo[4,3-c]pyridin-1-yl]-3-pyridyl]ethanol]
27000 nM	6340 nM	10000 nM	Cc1ccc(Nc2ccc3ncn(-c4ccc(C(C)O)c(-n5cc(C#N)c(C)n5)n4)c3c2)nn1 (stereo not drawn) [Example 178, 1-[3-(1-Hydroxyethyl)-6-[6-[(6-methylpyridazin-3-yl)amino]benzimidazol-1-yl]-2-pyridyl]-3-methyl-pyrazole-4-carbonitrile]
> 30000 nM	414 nM	74.3 nM	CNc1ncccc1-c1nc(-n2cnc3cc(Nc4ccc(C)nn4)ccc32)ccc1C(C)O (stereo not drawn) [Example 179, 1-[2-[2-(Methylamino)-3-pyridyl]-6-[5-[(6-methylpyridazin-3-yl)amino]benzimidazol-1-yl]-3-pyridyl]ethanol; formic acid]
15400 nM	88.9 nM	25.7 nM	Cc1ccc(Nc2ccc3c(c2)ncn3-c2ccc(C(C)O)c(-n3cc(C#N)c(C)n3)n2)nn1 (stereo not drawn) [Example 182, 1-[3-(1-Hydroxyethyl)-6-[5-[(6-methylpyridazin-3-yl)amino]benzimidazol-1-yl]-2-pyridyl]-3-methyl-pyrazole-4-carbonitrile]
2830 nM	94.5 nM	17.5 nM	Cc1ccc(Nc2ccc3c(c2)ncn3-c2ccc(C(C)O)c(N3CC(C)(C#N)C3)n2)nn1 (stereo not drawn) [Example 183, 1-[3-(1-Hydroxyethyl)-6-[5-[(6-methylpyridazin-3-yl)amino]benzimidazol-1-yl]-2-pyridyl]-3-methyl-azetidine-3-carbonitrile]
1990 nM	2500 nM	1900 nM	Cc1ccc(Nc2ccc3ncn(-c4ccc(C(C)O)c(N5CC(C)(C#N)C5)n4)c3c2)nn1 (stereo not drawn) [Example 184, 1-[3-(1-Hydroxyethyl)-6-[6-[(6-methylpyridazin-3-yl)amino]benzimidazol-1-yl]-2-pyridyl]-3-methyl-azetidine-3-carbonitrile]
6 nM	0.3 nM	0.7 nM	COc1cc2c(cc1Nc1ccc(C)nn1)ncn2-c1ccc(C(C)O)c(-n2nc(C#N)cc2C)n1 (stereo not drawn) [Example 185, 1-[3-(1-Hydroxyethyl)-6-[6-methoxy-5-[(6-methylpyridazin-3-yl)amino]benzimidazol-1-yl]-2-pyridyl]-5-methyl-pyrazole-3-carbonitrile]
70 nM	2 nM	5.6 nM	COCCOc1cc2c(cc1Nc1ccc(C)nn1)ncn2-c1ccc(C(C)O)c(-n2nc(C#N)cc2C)n1 (stereo not drawn) [Example 187, 1-[3-(1-Hydroxyethyl)-6-[6-(2-methoxyethoxy)-5-[(6-methylpyridazin-3-yl)amino]benzimidazol-1-yl]-2-pyridyl]-5-methyl-pyrazole-3-carbonitrile]
186 nM	3.9 nM	4.7 nM	Cc1ccc(Nc2cc3ncn(-c4ccc(C(C)O)c(-n5nc(C#N)cc5C)n4)c3cc2OCCN(C)C)nn1 (stereo not drawn) [Example 189, 1-[6-[6-[2-(Dimethylamino)ethoxy]-5-[(6-methylpyridazin-3-yl)amino]benzimidazol-1-yl]-3-(1-hydroxyethyl)-2-pyridyl]-5-methyl-pyrazole-3-carbonitrile]
84 nM	50.8 nM	382 nM	Cc1cc(C#N)nn1-c1nc(-n2cnc3cc(Br)c(N4CCN(C5COC5)CC4)cc32)ccc1C(C)O (stereo not drawn) [Example 190, 1-[6-[5-Bromo-6-[4-(oxetan-3-yl)piperazino]benzimidazol-1-yl]-3-(1-hydroxyethyl)-2-pyridyl]-5-methyl-pyrazole-3-carbonitrile]
53 nM	2.7 nM	2.2 nM	COC1CN(C(=O)c2ccc(Nc3ccc4c(c3)ncn4-c3ccc(C(C)O)c(-n4nc(C#N)cc4C)n3)nn2)C1 (stereo not drawn) [Example 191, 1-[3-(1-Hydroxyethyl)-6-[5-[[6-(3-methoxyazetidine-1-carbonyl)pyridazin-3-yl]amino]benzimidazol-1-yl]-2-pyridyl]-5-methyl-pyrazole-3-carbonitrile]
196 nM	3.1 nM	4 nM	Cc1ccc(Nc2cc3ncn(-c4ccc(C(C)O)c(-n5nc(C#N)cc5C)n4)c3cc2OC2CCNC2)nn1 (stereo not drawn) [Example 192, 1-[3-(1-Hydroxyethyl)-6-[5-[(6-methylpyridazin-3-yl)amino]-6-pyrrolidin-3-yloxy-benzimidazol-1-yl]-2-pyridyl]-5-methyl-pyrazole-3-carbonitrile]
68 nM	3.2 nM	1.9 nM	COCCOc1ccc(Nc2ccc3c(c2)ncn3-c2ccc(C(C)O)c(-n3nc(C#N)cc3C)n2)nn1 (stereo not drawn) [Example 193, 1-[3-(1-Hydroxyethyl)-6-[5-[[6-(2-methoxyethoxy)pyridazin-3-yl]amino]benzimidazol-1-yl]-2-pyridyl]-5-methyl-pyrazole-3-carbonitrile]
3330 nM	288 nM	29.5 nM	Cc1ccc(Nc2ccc3c(c2)ncn3-c2ccc(C(C)O)c(-c3cccc4[nH]nnc34)n2)nn1 (stereo not drawn) [Example 194, 1-[2-(1H-Benzotriazol-4-yl)-6-[5-[(6-methylpyridazin-3-yl)amino]benzimidazol-1-yl]-3-pyridyl]ethanol]
20 nM	3.1 nM	1.4 nM	Cc1cc(C#N)nn1-c1nc(-n2cnc3cc(Nc4ccc(OCC(F)F)nn4)ccc32)ccc1C(C)O (stereo not drawn) [Example 195, 1-[6-[5-[[6-(2,2-Difluoroethoxy)pyridazin-3-yl]amino]benzimidazol-1-yl]-3-(1-hydroxyethyl)-2-pyridyl]-5-methyl-pyrazole-3-carbonitrile]
15 nM	2.3 nM	0.9 nM	Cc1cc(C#N)nn1-c1nc(-n2cnc3cc(Nc4ccc(OC(F)F)nn4)ccc32)ccc1C(C)O (stereo not drawn) [Example 197, 1-[6-[5-[[6-(Difluoromethoxy)pyridazin-3-yl]amino]benzimidazol-1-yl]-3-(1-hydroxyethyl)-2-pyridyl]-5-methyl-pyrazole-3-carbonitrile]
391 nM	7 nM	1.8 nM	Cc1ccc(Nc2ccc3c(c2)ncn3-c2ccc(C(O)C(F)F)c(-n3nc(C#N)cc3C)n2)nn1 (stereo not drawn) [Example 198, 1-[3-(2,2-Difluoro-1-hydroxy-ethyl)-6-[5-[(6-methylpyridazin-3-yl)amino]benzimidazol-1-yl]-2-pyridyl]-5-methyl-pyrazole-3-carbonitrile]
245 nM	171 nM	371 nM	Cc1ccc(Nc2ccc3ncn(-c4ccc(C(O)C(F)F)c(-n5nc(C#N)cc5C)n4)c3c2)nn1 (stereo not drawn) [Example 199, 1-[3-(2,2-Difluoro-1-hydroxy-ethyl)-6-[6-[(6-methylpyridazin-3-yl)amino]benzimidazol-1-yl]-2-pyridyl]-5-methyl-pyrazole-3-carbonitrile]
